Reference: PMC5945669, “Reversible glycosidic switch for secure delivery of molecular nanocargos” (Nature Communications, 2018)
One block for each compound: values may come before it.

Assays:
[1] = Octanol-to-water partitioning; conditions: for partitioning behavior in octanol-water two-phase system: 1-octanol / citric acid buffer pH 5 (Fig. 2f), in words; for Log P (partition coefficient): 24 h, pH 5
Method: Samples from the supernatant were analyzed by HPLC to determine water solubility. The partitioning of compounds between octanol and water was determined by adding 2.5 nmol of each substance to an equal volume (200 µL) mixture of octanol and 0.25 M citric acid, pH 5 and shaking for 24 h to permit equilibration between the two phases. The tubes were then centrifuged at 20,000 × g for 30 min at 20 °C and 20 μL samples from each phase were analyzed by HPLC. The partition coefficient is defined by the following equation, where “C” is the concentration of compound in each phase. A partition coefficient equal to 0 means that the compound equally distributes between each phase.

[2] = Regeneration of parental drug 9AC within tumors (tumor vs blood); assay type: in vivo, NOD/SCID mice; conditions: female, NOD/SCID, mouse, intravenous, printed in picture of Fig. 9b, read-out: 9AC per gram of tissue, Tumor vs Blood
Method: Twelve to 16 week old female NOD/SCID immunodeficient mice were inoculated with 10^7 MDA-MB468 human breast cancer cells. When tumors reached ~100 mm^3, the mice were intravenously injected with 14.5 µmol kg^−1 (10 mg kg^−1) of liposomal 9AC-G^W (based on the drug concentration). Blood was collected in Na-heparinized hematocrit tubes from the tail vein and mice were then killed to harvest the tumor tissue. Blood samples (100 µL) were centrifuged at 2500 × g for 3 min and the plasma was collected for analysis. Tumor tissue was homogenized in 3 mL RIPA buffer (25 mM Tris-HCl pH 7.5, 150 mM NaCl, 0.1% SDS, 0.5% Na-deoxycholate, 1% Triton X-100) on a IKA Ultra-Turrax® TP 18/10 homogenizer. The amount of 9AC was determined in blood and tumor samples by HPLC and normalized to amounts per gram of tissue, according to the relationship 1 mL of whole blood = 1.06 g of weight.

[3] = test system: MDA-MB-468 human breast tumors; assay: In vivo anticancer activity, subcutaneous human breast cancer xenograft; design: species or system NOD/SCID mice; conditions: four weekly injections
Method: MDA-MB468 human breast cancer cells (10^7 cells in 100 µL PBS) were injected subcutaneously in twelve to sixteen-week old female NOD/SCID immunodeficient mice. When tumors reached sizes ranging from 75 to 100 mm^3, groups of seven mice were treated at weekly intervals for four times with intravenous injections of 9AC at 5.5 µmol kg^−1 (2 mg kg^−1), 9AC-G^W at 14.5 µmol kg^−1 (10 mg kg^−1), liposomal 9AC-G^W at 14.5 µmol kg^−1 (10 mg kg^−1), or doxorubicin liposomes (Doxisome, 1.8 µmol kg^−1 equivalent to 1 mg kg^−1 and 5.5 µmol kg^−1 equivalent to 3 mg kg^−1). Tumor volumes, body weights, and survival were monitored for more than 2 months after treatments started. […] The tumor volume was calculated according to the following formula:2 TumorVolume=Length×Depth×Height/2

[4] = parental hydrophobic drugs; cited from earlier work
[5] = Water solubility (saturation, HPLC); assay type: physicochemical; conditions: 24 h
[6] = Stability and conversion of the lipid-soluble switch in liposomal external and internal buffers; assay type: physicochemical; conditions: 75 °C
Method: Error bars, SD, n = 3. c Kinetics of the conversion of 9AC-G^W to lipid-soluble 9AC-G^L, d BQC-G^W to BQC-G^L and e 4MU-G^W to 4MU-G^L in acidic methanol at 62 °C. The HPLC chromatograms show samples at 0, 15, 30, and 60 min. RFU relative fluorescent units. f Partition coefficients (Log scale) between 50 mM citric acid buffer pH 5 and 1-octanol of the parental compounds compared to their respective -G^W and -G^L forms. Error bars: SD, n = 5. g Stability of 9AC-G^L in liposomal external buffer (50 mM citric acid, 250 mM sodium sulfate, pH 5) at 75 °C. Error bars: SD, n = 3. h Conversion of 9AC-G^L to 9AC-G^W in liposomal internal buffer (50 mM HEPES, 250 mM calcium acetate, pH 8.5) at 75 °C. Error bars: SD, n = 3.
Water-soluble 9AC-G^W was obtained by incubating 50 µg 9AC-G^L in 500 µL of liposomal internal buffer at pH 8.5. After 1 h at 65 °C the reaction was analyzed by HPLC to assess the reformation of 9AC-G^W. A 20 µL sample of 9AC-G^W was then transferred to 1 mL of reaction buffer (100 mM sodium acetate, 100 ng mL^−1 bovine serum albumin, pH 4.5) containing 1 µg of purified recombinant human beta-glucuronidase[56] for 1 h at 37 °C to cleave the cue-responsive trigger and generate 9AC. Drug regeneration was also examined in a biological system where 10^5 cells (MDA-MB468, HCC36, and HCC36 anti-PEG) were seeded per well in a 96 well-plate in triplicate and incubated overnight. […]

[7] = Pharmacokinetics in plasma after i.v. injection; design: species or system NOD/SCID female mice; conditions: female, NOD/SCID, mouse, in vivo, iv, 35 umol/kg
Method: 9AC-G^W was dissolved at 10.9 µmol mL^−1 (7.5 mg mL^−1) in 25 mM phosphate buffer pH 6.5 just before use. 9AC-G^W liposomes were concentrated by successive centrifugations at 5000, 10,000, and 20,000 × g for 30 min at 4 °C. After each centrifugation, the pellet was collected and resuspended in a smaller volume of buffer. The concentration of liposomal 9AC-G^W achieved through this method before injection was 5.1 µmol mL^−1 (3.5 mg mL^−1) based on 9AC-G^W. Each preparation (free 9AC-G^W and liposomal 9AC-G^W) was injected intravenously in the tail vein of 12–16 week old NOD/SCID female mice at 35 µmol kg^−1 (25 mg kg^−1) using three mice per group. Blood samples were collected at 5 min, 30 min, 60 min, 2 h, and 3 h for free 9AC-G^W, in addition to 6, 12, 26, 48, 148 h for 9AC-G^W liposomes with Na-heparinized hematocrit tubes from the tail vein. The plasma was separated from the red blood cells by centrifugation at 2500 × g for 3 min. […] The final results are expressed as 9AC-G^W plasma concentration in µmol L^−1 (µM). Biological half-lives were determined by an exponential two phase decay curve fit on GraphPad prism (GraphPad software, Inc.).

[8] = in animals; no reference given; cited from earlier work
[9] = PBS pH 7.4, after 2 hr; no reference given; cited from earlier work
[10] = design: method as in earlier work; conditions: rats 50, 250, 500 mg/kg i.p. daily; dogs 50 mg/kg i.v.; ref 6 of peer review file; cited from earlier work

- partitioning behavior in octanol-water two-phase system [1]: partitioned in the aqueous phase
- partitioning behavior in octanol-water two-phase system ([1]; listed as 4MU-G^L): slightly lipophilic behavior
Structure (SMILES): Cc1cc(=O)oc2cc(O[C@@H]3O[C@H](C(=O)O)[C@@H](O)[C@H](O)[C@H]3O)ccc12 [4MU-G^W, 4-methylumbelliferyl-β-D-glucuronide, reference compound]

Structure (SMILES): CC[C@@]1(O)C(=O)OCc2c1cc1n(c2=O)Cc2cc3c(N)cccc3nc2-1 [9AC, 9-aminocamptothecin]
- Kp at 24 h ([2]; 24 h post-injection): > 30
- Kp at 72 h ([2]; 72 h post-injection): > 12
- effect on tumor growth compared with TBS ([3]; 5.5 µmol kg^−1 i.v.): minimal effect on tumor growth
- water solubility [4]: < 0.05 mg/mL

Structure (SMILES): CCC1(O)C(=O)OCc2c1cc1n(c2=O)Cc2cc3c(NC(=O)OCc4ccc(OC5OC(C(=O)O)C(O)C(O)C5O)cc4)cccc3nc2-1 [9AC-G^W, 9-aminocamptothecin-β-D-glucuronide]
- water solubility, fold greater than the parental hydrophobic drug [5]: 680 fold
- partitioning behavior in octanol-water two-phase system [1]: partitioned in the aqueous phase
- partitioning behavior in octanol-water two-phase system ([1]; listed as 9AC-G^L): slightly lipophilic behavior
- Log P (partition coefficient) [1]: ~ 1.1
- stability in liposomal external buffer ([6]; pH 5 (50 mM citric acid, 250 mM sodium sulfate)): stable
- conversion in liposomal internal buffer ([6]; pH 8.5 (50 mM HEPES, 250 mM calcium acetate)): rapidly converted to the highly water-soluble 9AC-G^W
- half-life ([7]; initial half-life): 9.3 min
- half-life ([7]; terminal half-life): 38.6 min
- effect on tumor growth compared with TBS ([3]; 14.5 µmol kg^−1 i.v.): minimal effect on tumor growth

Structure (SMILES): CCC1(O)C(=O)OCc2c1cc1n(c2=O)Cc2c-1nc1ccc(O)c3c1c2CCC3 (centres unmarked) [BQC, 5,6-dihydro-4H-benzo[de]quinoline-camptothecin, reference compound]
- Water solubility, fold difference between Parental and -G^W Switch [5]: > 3700 ×

Structure (SMILES): CCC1(O)C(=O)OCc2c1cc1n(c2=O)Cc2c-1nc1ccc(OCc3ccc(OC4OC(C(=O)O)C(O)C(O)C4O)c([N+](=O)[O-])c3)c3c1c2CCC3 [BQC-G^W, 5,6-dihydro-4H-benzo[de]quinoline-camptothecin-β-D-glucuronide]
- water solubility, fold greater than the parental hydrophobic drug [5]: 3700 fold
- partitioning behavior in octanol-water two-phase system [1]: partitioned in the aqueous phase
- partitioning behavior in octanol-water two-phase system ([1]; listed as BQC-G^L): slightly lipophilic behavior
- Log P (partition coefficient) [1]: ~ 1.3

Structure (SMILES): OCc1ccccc1 [Benzyl alcohol, benzyl alcohol]
- LD50 dose [8]: greater than 1 g per kg

Structure (SMILES): CC[C@@]1(O)C(=O)OCc2c1cc1n(c2=O)Cc2cc3ccccc3nc2-1 [CPT]
- activity remaining [9]: 10%

Structure (SMILES): O=C[C@H](O)[C@@H](O)[C@H](O)[C@H](O)C(=O)O [D-glucuronic acid]
- functional or morphological changes after one-month treatment [10]: induced neither f unctional nor
